In ChEMBL document CHEMBL3045426, “Synthesis, Antiviral and Antibacterial Activities of Isatin Mannich Bases” (Med Chem Res, 2005):
Converted amounts (≈) assume the structure as drawn.

Assays:
[1] = Selectivity index, ratio of CC50 for human MT4 cells to EC50 for HIV1 3B infected in MT4 cells; format: toxicity, cell-based; settings: read-out: Ratio CC50/EC50
Vibrio cholerae [2] = experiment: Antimicrobial activity against Vibrio cholerae 01 after 18 to 20 hr by agar dilution method; format: functional; settings: 1
Priestia megaterium = experiment: Antimicrobial activity against Bacillus megaterium after 18 to 20 hr by agar dilution method; format: functional
Enterobacter = experiment: Antimicrobial activity against Enterobacter after 18 to 20 hr by agar dilution method; format: functional
Citrobacter freundii = experiment: Antimicrobial activity against Citrobacter freundii after 18 to 20 hr by agar dilution method; format: functional
Salmonella enteritidis = experiment: Antimicrobial activity against Salmonella enterica subsp. enterica serovar Enteritidis after 18 to 20 hr by agar dilution method; format: functional
Salmonella typhimurium = experiment: Antimicrobial activity against Salmonella enterica subsp. enterica serovar Typhimurium after 18 to 20 hr by agar dilution method; format: functional
Proteus mirabilis = experiment: Antimicrobial activity against Proteus mirabilis after 18 to 20 hr by agar dilution method; format: functional
Proteus vulgaris = experiment: Antimicrobial activity against Proteus vulgaris after 18 to 20 hr by agar dilution method; format: functional
Edwardsiella tarda = experiment: Antimicrobial activity against Edwardsiella tarda after 18 to 20 hr by agar dilution method; format: functional
Escherichia coli = experiment: Antimicrobial activity against Escherichia coli NCTC 10418 after 18 to 20 hr by agar dilution method; format: functional
Salmonella typhi = experiment: Antimicrobial activity against Salmonella enterica subsp. enterica serovar Typhi after 18 to 20 hr by agar dilution method; format: functional
Salmonella paratyphi = experiment: Antimicrobial activity against Salmonella enterica subsp. enterica serovar Paratyphi A after 18 to 20 hr by agar dilution method; format: functional
Vibrio parahaemolyticus = experiment: Antimicrobial activity against Vibrio parahaemolyticus after 18 to 20 hr by agar dilution method; format: functional
Vibrio cholerae [3] = experiment: Antimicrobial activity against Vibrio cholerae 0139 after 18 to 20 hr by agar dilution method; format: functional; settings: 139
Vibrio fluvialis = experiment: Antimicrobial activity against Vibrio fluvialis after 18 to 20 hr by agar dilution method; format: functional
Vibrio mimicus = experiment: Antimicrobial activity against Vibrio mimicus after 18 to 20 hr by agar dilution method; format: functional
Pseudomonas aeruginosa = experiment: Antimicrobial activity against Pseudomonas aeruginosa after 18 to 20 hr by agar dilution method; format: functional
Staphylococcus aureus = experiment: Antimicrobial activity against Staphylococcus aureus after 18 to 20 hr by agar dilution method; format: functional
Morganella morganii = experiment: Antimicrobial activity against Morganella morganii after 18 to 20 hr by agar dilution method; format: functional
Shigella boydii = experiment: Antimicrobial activity against Shigella boydii after 18 to 20 hr by agar dilution method; format: functional
Plesiomonas = experiment: Antimicrobial activity against Plesiomonas after 18 to 20 hr by agar dilution method; format: functional
Shigella sonnei = experiment: Antimicrobial activity against Shigella sonnei after 18 to 20 hr by agar dilution method; format: functional
Klebsiella pneumoniae [4] = experiment: Antimicrobial activity against Klebsiella pneumoniae after 18 to 20 hr by agar dilution method; format: functional
Klebsiella pneumoniae [5] = experiment: Antimicrobial activity against Klebsiella pneumoniae subsp. ozaenae after 18 to 20 hr by agar dilution method; format: functional
[6] = test system: Mycobacterium tuberculosis; experiment: Antimycobacterial activity against Mycobacterium tuberculosis H37Rv ATCC 27294 at 6.25 ug/ml by MABA; format: functional
[7] = Cytotoxicity against Homo sapiens (human) HuH7 cells assessed as cell growth at 50 ug/ml after 3 days by Neutral red assay; format: cell-based, Huh-7; settings: read-out: Activity
[8] = Cytotoxicity against Homo sapiens (human) CEM cells after 5 days by MTT assay; format: cell-based; settings: CEM cells (CCRF-CEM)
[9] = test system: Human immunodeficiency virus 1; experiment: Antiviral activity against Human immunodeficiency virus 1 IIIB infected CEM cells assessed as protection against viral infection after 6 days by XTT assay; format: functional, CCRF-CEM; set-up: concentration or dose not given beside the values
[10] = test system: Human immunodeficiency virus 1; experiment: Antiviral activity against Human immunodeficiency virus 1 IIIB infected CEM cells assessed as inhibition of virus-induced cytopathicity after 6 days by XTT assay; format: functional, organism-based; settings: CCRF-CEM, 144 h
[11] = Cytotoxicity against Homo sapiens (human) MT4 cells after 5 days by MTT assay; format: cell-based
[12] = test system: Human immunodeficiency virus 1; experiment: Antiviral activity against Human immunodeficiency virus 1 IIIB infected MT4 cells assessed as inhibition of virus-induced cytopathicity after 5 days by MTT assay; format: functional, organism-based; settings: MT4, 120 h
Hepatitis C virus = experiment: Antiviral activity against Hepatitis C virus BM4-5 infected in Huh7 cells assessed as inhibition of viral RNA replication by phosphor screening method; format: functional, Hepacivirus hominis, Huh-7
[13] = test system: Human immunodeficiency virus 1; experiment: Antiviral activity against Human immunodeficiency virus 1 IIIB infected MT4 cells assessed as protection against viral infection after 5 days by MTT assay; format: functional; set-up: concentration or dose not given beside the values

| SMILES | selectivity ratio [1] | MIC (Vibrio cholerae [2]) [µg/mL] | MIC (Priestia megaterium) [µg/mL] | MIC (Enterobacter) [µg/mL] | MIC (Citrobacter freundii) [µg/mL] | MIC (Salmonella enteritidis) [µg/mL] | MIC (Salmonella typhimurium) [µg/mL] | MIC (Proteus mirabilis) [µg/mL] | MIC (Proteus vulgaris) [µg/mL] | MIC (Edwardsiella tarda) [µg/mL] | MIC (Escherichia coli) [µg/mL] | MIC (Salmonella typhi) [µg/mL] | MIC (Salmonella paratyphi) [µg/mL] | MIC (Vibrio parahaemolyticus) [µg/mL] | MIC (Vibrio cholerae [3]) [µg/mL] | MIC (Vibrio fluvialis) [µg/mL] | MIC (Vibrio mimicus) [µg/mL] | MIC (Pseudomonas aeruginosa) [µg/mL] | MIC (Staphylococcus aureus) [µg/mL] | MIC (Morganella morganii) [µg/mL] | also measured |
| --- | --- | --- | --- | --- | --- | --- | --- | --- | --- | --- | --- | --- | --- | --- | --- | --- | --- | --- | --- | --- | --- |
| COc1cc(Cc2cnc(/N=C3\C(=O)N(CN4CCCCC4C)c4ccc(Cl)cc43)nc2N)cc(OC)c1OC (stereo not drawn) | 3 | 4.88 (≈ 8.64 µM) | 625 (≈ 1110 µM) | 625 (≈ 1110 µM) | 625 (≈ 1110 µM) | 625 (≈ 1110 µM) | 1250 (≈ 2210 µM) | 625 (≈ 1110 µM) | 625 (≈ 1110 µM) | 1250 (≈ 2210 µM) | 625 (≈ 1110 µM) | 1250 (≈ 2210 µM) | 625 (≈ 1110 µM) | 1.22 (≈ 2.16 µM) | 625 (≈ 1110 µM) | 1250 (≈ 2210 µM) | 0.61 (≈ 1.08 µM) | 1250 (≈ 2210 µM) | 312 (≈ 553 µM) | 1250 (≈ 2210 µM) | MIC (Shigella boydii): 4.88 µg/mL (≈ 8.64 µM); MIC (Plesiomonas): 19.5 µg/mL (≈ 34.6 µM); MIC (Shigella sonnei): 1250 µg/mL (≈ 2210 µM); MIC (Klebsiella pneumoniae [4]): 1250 µg/mL (≈ 2210 µM); MIC (Klebsiella pneumoniae [5]): 1250 µg/mL (≈ 2210 µM); inhibition at 6.25 µg/mL [6]: 10%; viability at 72 h, 50 ug/ml [7]: 112%; CC50 at 120 h [8]: > 83.8 µg/mL; Activity [9]: 20.7%; EC50 [10]: > 83.8 µg/mL; CC50 at 120 h [11]: 97.3 µg/mL (≈ 172 µM); EC50 [12]: 32.6 µg/mL (≈ 57.7 µM); inhibition (INH) (Hepatitis C virus): 89%; Activity [13]: 62.6% |
| COc1cc(Cc2cnc(/N=C3\C(=O)N(CN(Cc4ccccc4)Cc4ccccc4)c4ccc(Cl)cc43)nc2N)cc(OC)c1OC | 3 | 1.22 (≈ 1.84 µM) | 1250 (≈ 1880 µM) | 625 (≈ 942 µM) | 1250 (≈ 1880 µM) | 625 (≈ 942 µM) | 1250 (≈ 1880 µM) | 625 (≈ 942 µM) | 625 (≈ 942 µM) | 625 (≈ 942 µM) | 625 (≈ 942 µM) | 625 (≈ 942 µM) | 625 (≈ 942 µM) | 19.5 (≈ 29.4 µM) | 312 (≈ 471 µM) | 1250 (≈ 1880 µM) | 4.88 (≈ 7.36 µM) | 1250 (≈ 1880 µM) | 625 (≈ 942 µM) | 625 (≈ 942 µM) | MIC (Shigella boydii): 1.22 µg/mL (≈ 1.84 µM); MIC (Plesiomonas): 39.1 µg/mL (≈ 58.9 µM); MIC (Shigella sonnei): 1250 µg/mL (≈ 1880 µM); MIC (Klebsiella pneumoniae [4]): 1250 µg/mL (≈ 1880 µM); MIC (Klebsiella pneumoniae [5]): 1250 µg/mL (≈ 1880 µM); inhibition at 6.25 µg/mL [6]: 97%; viability at 72 h, 50 ug/ml [7]: 65%; CC50 at 120 h [8]: 37.1 µg/mL (≈ 55.9 µM); Activity [9]: 20.98%; EC50 [10]: > 37.1 µg/mL; CC50 at 120 h [11]: 44.1 µg/mL (≈ 66.5 µM); EC50 [12]: 10.4 µg/mL (≈ 15.7 µM); inhibition (INH) (Hepatitis C virus): 81%; Activity [13]: 95.1% |
| CCCCN(CCCC)CN1C(=O)/C(=N\c2ncc(Cc3cc(OC)c(OC)c(OC)c3)c(N)n2)c2cc(Cl)ccc21 | 3 | 0.61 (≈ 1.03 µM) | 1250 (≈ 2100 µM) | 1250 (≈ 2100 µM) | 1250 (≈ 2100 µM) | 625 (≈ 1050 µM) | 1250 (≈ 2100 µM) | 1250 (≈ 2100 µM) | 1250 (≈ 2100 µM) | 1250 (≈ 2100 µM) | 1250 (≈ 2100 µM) | 1250 (≈ 2100 µM) | 625 (≈ 1050 µM) | 19.5 (≈ 32.8 µM) | 625 (≈ 1050 µM) | 1250 (≈ 2100 µM) | 4.88 (≈ 8.2 µM) | 2500 (≈ 4200 µM) | 1250 (≈ 2100 µM) | 625 (≈ 1050 µM) | MIC (Shigella boydii): 39.1 µg/mL (≈ 65.6 µM); MIC (Plesiomonas): 39.1 µg/mL (≈ 65.6 µM); MIC (Shigella sonnei): 1250 µg/mL (≈ 2100 µM); MIC (Klebsiella pneumoniae [4]): 1250 µg/mL (≈ 2100 µM); MIC (Klebsiella pneumoniae [5]): 1250 µg/mL (≈ 2100 µM); inhibition at 6.25 µg/mL [6]: 67%; viability at 72 h, 50 ug/ml [7]: 48%; CC50 at 120 h [11]: 62.6 µg/mL (≈ 105 µM); EC50 [12]: 16.1 µg/mL (≈ 27.1 µM); inhibition (INH) (Hepatitis C virus): 84%; Activity [13]: 73.2% |
| COc1cc(Cc2cnc(/N=C3\C(=O)N(CN4CCN(c5ccc(F)cc5)CC4)c4ccc(Cl)cc43)nc2N)cc(OC)c1OC | 3 | 4.88 (≈ 7.55 µM) | 625 (≈ 967 µM) | 625 (≈ 967 µM) | 625 (≈ 967 µM) | 625 (≈ 967 µM) | 625 (≈ 967 µM) | 625 (≈ 967 µM) | 625 (≈ 967 µM) | 625 (≈ 967 µM) | 625 (≈ 967 µM) | 625 (≈ 967 µM) | 312 (≈ 484 µM) | 39.1 (≈ 60.5 µM) | 625 (≈ 967 µM) | 1250 (≈ 1930 µM) | 4.88 (≈ 7.55 µM) | 1250 (≈ 1930 µM) | 625 (≈ 967 µM) | 625 (≈ 967 µM) | MIC (Shigella boydii): 19.5 µg/mL (≈ 30.2 µM); MIC (Plesiomonas): 9.76 µg/mL (≈ 15.1 µM); MIC (Shigella sonnei): 1250 µg/mL (≈ 1930 µM); MIC (Klebsiella pneumoniae [4]): 1250 µg/mL (≈ 1930 µM); MIC (Klebsiella pneumoniae [5]): 625 µg/mL (≈ 967 µM); inhibition at 6.25 µg/mL [6]: 35%; viability at 72 h, 50 ug/ml [7]: 64%; CC50 at 120 h [8]: 71 µg/mL (≈ 110 µM); Activity [9]: 22.98%; EC50 [10]: > 71 µg/mL; CC50 at 120 h [11]: 65.6 µg/mL (≈ 102 µM); EC50 [12]: 56.1 µg/mL (≈ 86.8 µM); inhibition (INH) (Hepatitis C virus): 80%; Activity [13]: 59.6% |
